# Experiments:
# [1] = system: Formosan subterranean termites; assay: In-field marking and control, bait at infested trees, sites 1 and 2; format: in vivo; details: for Bait consumption: 250 ppm bait
# Source text: (§1) Formosan subterranean termite and native subterranean termite infested trees (Water Oaks and Legastrums) in New Orleans, La. were chosen for this study. Three sites were selected located at the Southern Regional Research Center campus. Site 1 was located near the service building next to an old water oak tree, site 2 was located in the compound area near ligastrum trees, and site 3 near ligastrum trees outside the compound area. Sites 1 and 2 were active with Formosan subterranean termites and site 3 with Eastern subterranean termites.
# (§2) The colored bait matrix at 250 ppm was encapsulated as described above and placed directly in the base of the trees where termites were foraging, making sure that the encapsulated colored bait matrix was covered with soil or with a piece of wood or brick on top of it to prevent desiccation. The bait was periodically inspected for consumption and termite activity. The field study started in early August and was completed by the end of the following June. During winter (December-February) termite activity decreased considerably, but by April termite activity and foraging resumed and the blue colored matrix was replaced by bait formulation containing 250 ppm of chitin synthesis inhibitors to kill the colonies. Diflubenzuron was used in 2 of the sites and chlorfluazuron was used in the remaining site.
# [2] = system: Eastern subterranean termites; assay: In-field marking and control, bait at infested trees, site 3; format: in vivo; details: Site 3 (Ligastrum), 250 ppm bait
# Source text: as §1, §2
# [3] = system: Formosan subterranean termite workers; assay: Laboratory foraging-box bait test, groups of 1000 termite workers (colorant:CSI dose determination); format: in vivo, Coptotermes formosanus; details: for Groups of 1000 termite workers alive: of 12 boxes
# Procedure: Under a laminar flow hood, 66 g colored cellulose powder at concentration of 50, 100, 225, 250, 500, or 750 ppm (0.010, 0.020, 0.045, 0.050, 0.100, or 0.150 g, respectively) from example 1 was mixed with 135 ml of sterile nutritional supplement (formulated as in example 1) in a 250 ml sterile glass beaker (prepared as reported by Rojas, M. G. and Morales-Ramos, J. A., “Bait matrix for delivery of chitin synthesis inhibitors to the Formosan subterranean termite [Isoptera: Rhinotermitidae],” J. Econ. Entomol., 94(2): 506-510 (2001)). A dose of 175 ppm of diflubenzuron was added to the formulations containing 50 and 100 ppm of calco oil blue. A lower dose of 50 ppm of diflubenzuron was added to the formulations containing 225 and 500 ppm of calco oil blue. The mixture was manually homogenized using a stainless steel spatula. To encase the bait matrix, tubes made of fibrous casing material (#124B; L.E.M. Products, Inc., Miamitown, Ohio) were cut into 150 mm long portions as reported by Rojas and Morales-Ramos (2001) supra. Fifty grams of bait matrix containing the blue colorant was compacted into one end of the inlet tube, at which point the open end of the inlet tube was closed with a rubber band. The bait casing was placed inside the foraging box adjacent to a 10 g piece of pine wood, taking care that they were partially covered with the sand. Control bait matrix was prepared minus blue colorant, and presented in the same was as the treatment matrix to Formosan subterranean termite workers taken from four different colonies, with 3 boxes per locality totaling twelve boxes of 1000 termites per treatment (Rojas and Morales-Ramos supra). All the experimental boxes were maintained under darkness at 27±1° C. and 90±2% relative humidity. Observations were done every 72 hours until all the termites died. The time to reach 100% mortality was measured and recorded. Mean comparisons among treatments and control were conducted.
structure (smiles),measurement,setting,value
"CCCCC(CC)CNc1ccc(NCC(CC)CCCC)c2c1C(=O)c1ccccc1C2=O (centres unmarked) [Calco oil blue V, 9,10-anthracenedione, 1,4-bis[(2-ethylhexyl)amino]]",Bait consumption,"[1]; Site 1 (Water Oak), day 7",0 g
same,Bait consumption,"[1]; Site 1 (Water Oak), day 14",150 g
same,Bait consumption,"[1]; Site 1 (Water Oak), day 21",350 g
same,Bait consumption,"[1]; Site 1 (Water Oak), day 27",400 g
same,Bait consumption,"[1]; Site 1 (Water Oak), day 46",400 g
same,Bait consumption,"[1]; Site 1 (Water Oak), day 56",100 g
same,Bait consumption,"[1]; Site 1 (Water Oak), day 73",0 g
same,Bait consumption,"[1]; Site 1 (Water Oak), day 83",0 g
same,Bait consumption,"[1]; Site 1 (Water Oak), day 102",0 g
same,Bait consumption,"[1]; Site 1 (Water Oak), day 159",0 g
same,Bait consumption,"[1]; Site 1 (Water Oak), day 221",0 g
same,Bait consumption,"[1]; Site 1 (Water Oak), day 251",0 g
same,Bait consumption,"[1]; Site 1 (Water Oak), day 281",0 g
same,Bait consumption,"[1]; Site 2 (Ligastrum), day 7",0 g
same,Bait consumption,"[1]; Site 2 (Ligastrum), day 14",200 g
same,Bait consumption,"[1]; Site 2 (Ligastrum), day 21",450 g
same,Bait consumption,"[1]; Site 2 (Ligastrum), day 27",300 g
same,Bait consumption,"[1]; Site 2 (Ligastrum), day 46",250 g
same,Bait consumption,"[1]; Site 2 (Ligastrum), day 56",350 g
same,Bait consumption,"[1]; Site 2 (Ligastrum), day 73",250 g
same,Bait consumption,"[1]; Site 2 (Ligastrum), day 83",300 g
same,Bait consumption,"[1]; Site 2 (Ligastrum), day 102",400 g
same,Bait consumption,"[1]; Site 2 (Ligastrum), day 159",200 g
same,Bait consumption,"[1]; Site 2 (Ligastrum), day 221",0 g
same,Bait consumption,"[1]; Site 2 (Ligastrum), day 251",0 g
same,Bait consumption,"[1]; Site 2 (Ligastrum), day 281",0 g
same,time termite workers remained visibly colored after removing the blue colored bait formulation,"[1]; field, 250 ppm",1 week
same,marking of termites after feeding on colored bait matrix,"[1]; field, 250 ppm colored bait matrix without diflubenzuron",visibly colored blue
same,period to eliminate the colonies,"[1]; field, calco oil blue bait followed by bait with 250 ppm chitin synthesis inhibitors",2 months
same,effect on termite colonies and termite activity,"[1]; field, matrix with calco oil blue V alone, 250 ppm",did not kill the termite colonies nor reduce termite activity
same,Bait consumption,[2]; day 7,0 g
same,Bait consumption,[2]; day 14,200 g
same,Bait consumption,[2]; day 21,150 g
same,Bait consumption,[2]; day 27,150 g
same,Bait consumption,[2]; day 46,100 g
same,Bait consumption,[2]; day 56,0 g
same,Bait consumption,[2]; day 73,0 g
same,Bait consumption,[2]; day 83,0 g
same,Bait consumption,[2]; day 102,0 g
same,Bait consumption,[2]; day 159,0 g
same,Bait consumption,[2]; day 221,0 g
same,Bait consumption,[2]; day 251,0 g
same,Bait consumption,[2]; day 281,0 g
same,Groups of 1000 termite workers alive,"[3]; 1 Month, Calco oil blue V 50 ppm + Diflubenzuron 175 ppm",11
same,Groups of 1000 termite workers alive,"[3]; 1 Month, Calco oil blue V 100 ppm + Diflubenzuron 175 ppm",9
same,Groups of 1000 termite workers alive,"[3]; 1 Month, Calco oil blue V 225 ppm + Diflubenzuron 50 ppm",7
same,Groups of 1000 termite workers alive,"[3]; 1 Month, Calco oil blue V 500 ppm + Diflubenzuron 50 ppm",9
same,Groups of 1000 termite workers alive,"[3]; 2 Months, Calco oil blue V 50 ppm + Diflubenzuron 175 ppm",10
same,Groups of 1000 termite workers alive,"[3]; 2 Months, Calco oil blue V 100 ppm + Diflubenzuron 175 ppm",4
same,Groups of 1000 termite workers alive,"[3]; 2 Months, Calco oil blue V 225 ppm + Diflubenzuron 50 ppm",2
same,Groups of 1000 termite workers alive,"[3]; 2 Months, Calco oil blue V 500 ppm + Diflubenzuron 50 ppm",4
same,Groups of 1000 termite workers alive,"[3]; 3 Months, Calco oil blue V 50 ppm + Diflubenzuron 175 ppm",5
same,Groups of 1000 termite workers alive,"[3]; 3 Months, Calco oil blue V 100 ppm + Diflubenzuron 175 ppm",1
same,Groups of 1000 termite workers alive,"[3]; 3 Months, Calco oil blue V 225 ppm + Diflubenzuron 50 ppm",0
same,Groups of 1000 termite workers alive,"[3]; 3 Months, Calco oil blue V 500 ppm + Diflubenzuron 50 ppm",3
same,effect on molting of immature termites,"[3]; after a month and a half, 50 ppm or 100 ppm calco blue + 175 ppm diflubenzuron",immature termites molted prematurely
same,effect on molting of immature termites,"[3]; after a month, 225 ppm calco blue + 50 ppm diflubenzuron",immature termites molted prematurely
same,time to mortality of a 1000-worker colony,"[3]; calco blue + diflubenzuron combination, depending on health and age of the colony",about 4 weeks
same,palatability of the bait,[3]; calco blue concentrations above 750 ppm,unpalatable
same,Bait consumption,[3]; calco blue concentrations above 1000 ppm,consumption is almost nonexistent
same,time some termite colonies required to begin feeding on the formulations,[3]; concentration of blue >225 ppm,more than 8 hrs
same,time until experimental colony was dead,"[3]; exposure to formulation containing calco oil blue V and diflubenzuron, control boxes alive after 3 months",about two months and a half

# From patent US7628979B1, “Use of calco oil blue V in bait formulations for marking and controlling subterranean termites” (The United States of America as represented by the …, priority 2005, dated 2009)
